Experimental data: patent US9810700B1, “Fluorogenic calcium ion indicators and methods of using the same” (AAT Bioquest, Inc., priority 2017, dated 2017)
≈ marks a conversion by molar mass, not a printed value.

Columns and labels:
[1] = Water solubility comparison of PEGTA compounds and conventional BAPTA calcium indicator AM esters; type: physicochemical; details: PBS, AM ester; for solubility: aqueous buffer, 25° C., read-out: Water solubility at 25° C. (PEGTA Compound)
[2] = system: CHO cells stably transfected with muscarinic receptor 1; assay: Calcium flux assay, indicator AM esters loaded into cells, with or without probenecid; type: cell-based; details: probenecid is not used
Protocol: In some embodiments, the fluorescent ion indicators are used in a method to measure calcium flux. Cells (e.g., CHO cells) stably transfected with muscarinic receptor 1 are plated—e.g., at 60,000 cells per 100 μl per well in F12 with 5% FBS and 1% glutamine in a 96-well black wall/clear bottom Costar plate—and incubated (e.g., in 5% CO2 at 37° C. overnight). The growth medium is removed and the cells are incubated with a fluorescent ion indicator (e.g., with 100 μl/well of 1-8 μM Fluo-3 AM, Fluo-4 AM or one or more compounds selected from Compound 22, 23, 24, 28, 33, 34, 40, 41 or 188 in Hanks and HEPES buffer for 1 hour at 37° C., 5% CO2) with or without probenecid. Carbachol or ATP is added (e.g., 50 μl/well by NOVOstar, FlexStation or FLIPR) to achieve a final concentration.
Cells expressing a GPCR of interest that signals through calcium are pre-loaded with the indicator AM esters (such as Fluo-3 AM. Fluo-4 AM, Compounds 22, 23, 24, 28, 33, 34, 40, 41 or 188) which can cross cell membrane. […] When the sample cells are stimulated with screening compounds, the receptor triggers a release of intracellular calcium, which then greatly increases the fluorescence of the intracellular indicators. […]

CHO-K1 cells = assay: ATP-stimulated calcium response monitored with FlexStation; type: cell-based; details: in the absence of probenecid; compared with Fluo-4 AM
Protocol: (§1) CHO-K1 cells are seeded overnight at 50,000 cells per 100 μl per well in a 96-well black wall/clear bottom costar plate. The growth medium is removed, and the cells are incubated with 100 μl of Compound 24 and Fluo-4 AM at 5 μM in Hanks and Hepes buffer in the presence of 2.5 mM probenecid for 1 hour at 37° C., 5% CO2 incubator. ATP (10 μM) is added by FlexStation to stimulate cell calcium, and the time-dependent calcium response is monitored with FlexStation.
CHO-K1 cells are seeded overnight at 50,000 cells per 100 μl per well in a 96-well black wall/clear bottom costar plate. The growth medium is removed, and the cells are incubated with 100 μl of Compound 24 and Fluo-4 AM at 5 μM in Hanks and Hepes buffer for 2 hours at 25° C. ATP (50 μL/well) is added by FlexStation to achieve the final desired concentrations.
as §1, with “CHO-K” for “CHO-K1”, “FlexStation. […]” for “FlexStation.”

Compound | solubility [1] [µg/mL] | fluorescence intensity compared with the corresponding BAPTA compounds [2] | fluorescence intensity enhancement upon calcium stimulation (CHO-K1 cells) | capability of detecting calcium [2] | Water solubility at 25° C. (BAPTA Compound) [1] [μg/ml PBS]
CC(=O)OCOC(=O)CN(CCOCCOc1cc2c(cc1N(CC(=O)OCOC(C)=O)CC(=O)OCOC(C)=O)C(=O)OC21c2cc(F)c(OC(C)=O)cc2Oc2cc(OC(C)=O)c(F)cc21)CC(=O)OCOC(C)=O [Compound 22] | 1.63 (≈ 1.49 µM) |  |  |  | 
CC(=O)OCOC(=O)CN(CCOCCOc1cc(-c2c3cc(F)c(=O)cc-3oc3cc(OCOC(C)=O)c(F)cc23)ccc1N(CC(=O)OCOC(C)=O)CC(=O)OCOC(C)=O)CC(=O)OCOC(C)=O [Compound 24] | 2.18 (≈ 2.11 µM) | much greater than that of the corresponding BAPTA compounds | unexpected better fluorescence intensity enhancement |  | 
CC(=O)OCOC(=O)CN(CCOCCOc1cc(C2=C3C(C)=CC(C)=[N+]3[B-](F)(F)n3c(C)cc(C)c32)ccc1N(CC(=O)OCOC(C)=O)CC(=O)OCOC(C)=O)CC(=O)OCOC(C)=O [Compound 188] | 1.29 (≈ 1.34 µM) |  |  |  | 
CC(=O)OCOC(=O)CN(CC(=O)OCOC(C)=O)c1ccc(C)cc1OCCOc1cc(-c2c3cc(F)c(=O)cc-3oc3cc(OCOC(C)=O)c(F)cc23)ccc1N(CC(=O)OCOC(C)=O)CC(=O)OCOC(C)=O [Fluo-4 AM, reference compound] |  |  |  | not capable of detecting calcium in some types of cells and tissues | 1.26
